From the supplement of paper PMC13380429
Structures can show the parent of a compound that is named as a salt.

Key:
Calu-3 [1] = assay: relative viability EC50 (midpoint between 100% and the lowest measured viability); higher = less toxic; conditions: 72 h
Caco-2 [2] = assay: as above; conditions: 72 h
U2OS [3] = assay: as above; conditions: 72 h
[4] = system: A549-ACE2 infected with SARS-CoV-2; assay: morphology score (similarity to uninfected cells); higher = more like uninfected cells; conditions: 24 h
A549-ACE2 [5] = assay: phospholipidosis EC50; higher = less potent phospholipidosis inducer
[6] = system: A549-ACE2 infected with SARS-CoV-2; assay: cell count relative to DMSO; higher = less toxic; conditions: 24 h
[7] = system: A549-ACE2 infected with SARS-CoV-2; assay: SARS-CoV-2 infection rate relative to DMSO; higher = more infection; conditions: 24 h
Calu-3 [8] = assay: drug sensitivity score (DSS) for viability; higher = more toxic; extreme values may be limits of the assay; conditions: 72 h
HepG2 [9] = assay: as above; conditions: 72 h
Caco-2 [10] = assay: as above; conditions: 72 h
U2OS [11] = assay: as above; conditions: 72 h
Vero E6 [12] = assay: as above; conditions: 72 h
A549-ACE2 [13] = assay: drug-induced phospholipidosis relative to tamoxifen; higher = more phospholipidosis
Calu-3 [14] = assay: cell viability relative to DMSO; higher = less toxic; conditions: 72 h
HepG2 [15] = assay: as above; conditions: 72 h
Caco-2 [16] = assay: as above; conditions: 72 h
U2OS [17] = assay: as above; conditions: 72 h
Vero E6 [18] = assay: as above; conditions: 72 h
HepG2 [19] = assay: relative viability EC50 (midpoint between 100% and the lowest measured viability); higher = less toxic; conditions: 72 h
Vero E6 [20] = assay: as above; conditions: 72 h

Oc1ccc2c3c1O[C@H]1c4c(c5ccccc5n4Cc4ccccc4)C[C@@]4(O)[C@@H](C2)N(CC2CC2)CC[C@]314 [N-benzylnaltrindole]
Conditions	drug sensitivity score	relative viability EC50 [µM]
Caco-2 [2]	–	> 10
Caco-2 [10]	0	–
Calu-3 [1]	–	3.19
Calu-3 [8]	3.3	–
HepG2 [9]	2.3	–
U2OS [3]	–	> 10
U2OS [11]	0	–
Vero E6 [12]	1.9	–

Conditions	SARS-CoV-2 infection rate [%]	cell count [%]	cell viability [%]	morphology score	phospholipidosis EC50 [µM]
A549-ACE2 [5], 24 h	–	–	–	–	2.62
A549-ACE2 [5], 48 h	–	–	–	–	4.61
A549-ACE2 [5], 72 h	–	–	–	–	6.76
Caco-2 [16], 1 nM	–	–	88.7	–	–
Caco-2 [16], 10 nM	–	–	99.7	–	–
Caco-2 [16], 100 nM	–	–	88.5	–	–
Caco-2 [16], 1000 nM	–	–	99	–	–
Caco-2 [16], 10000 nM	–	–	86.9	–	–
Calu-3 [14], 1 nM	–	–	96.9	–	–
Calu-3 [14], 10 nM	–	–	99.8	–	–
Calu-3 [14], 100 nM	–	–	106	–	–
Calu-3 [14], 1000 nM	–	–	100	–	–
Calu-3 [14], 10000 nM	–	–	38.9	–	–
HepG2 [15], 1 nM	–	–	102	–	–
HepG2 [15], 10 nM	–	–	98.9	–	–
HepG2 [15], 100 nM	–	–	103	–	–
HepG2 [15], 1000 nM	–	–	100	–	–
HepG2 [15], 10000 nM	–	–	54.8	–	–
U2OS [17], 1 nM	–	–	94.9	–	–
U2OS [17], 10 nM	–	–	102	–	–
U2OS [17], 100 nM	–	–	95.9	–	–
U2OS [17], 1000 nM	–	–	102	–	–
U2OS [17], 10000 nM	–	–	89.1	–	–
Vero E6 [18], 1 nM	–	–	100	–	–
Vero E6 [18], 10 nM	–	–	96	–	–
Vero E6 [18], 100 nM	–	–	95.1	–	–
Vero E6 [18], 1000 nM	–	–	96.2	–	–
Vero E6 [18], 10000 nM	–	–	70.1	–	–
[4], 0.1 µM	–	–	–	0.1	–
[4], 0.3 µM	–	–	–	0.1	–
[4], 1 µM	–	–	–	0.24	–
[4], 3 µM	–	–	–	0.47	–
[6], 0.1 µM	–	100	–	–	–
[6], 0.3 µM	–	101	–	–	–
[6], 1 µM	–	104	–	–	–
[6], 3 µM	–	108	–	–	–
[7], 0.1 µM	96	–	–	–	–
[7], 0.3 µM	94	–	–	–	–
[7], 1 µM	90	–	–	–	–
[7], 3 µM	69	–	–	–	–

drug-induced phospholipidosis [%], A549-ACE2 [13]
Conditions	0.3 µM	0.833333 µM	3.33333 µM	6.66667 µM	10 µM	30 µM
24 h	4.31	4.24	48.7	70.1	59	26.2
48 h	5.61	4.16	44.9	83.7	102	–
72 h	4.1	4.23	35.4	81.8	111	–

CC/C(=C(\c1ccc(O)cc1)c1ccc(OCCNC)cc1)c1ccccc1 [Endoxifen HCl]
Conditions	drug sensitivity score	relative viability EC50 [µM]
Caco-2 [10]	2.1	–
Calu-3 [1]	–	3.19
Calu-3 [8]	5.3	–
HepG2 [9]	3.1	–
HepG2 [19]	–	3.53
Vero E6 [12]	0	–
Vero E6 [20]	–	> 10

Conditions	SARS-CoV-2 infection rate [%]	cell count [%]	cell viability [%]	morphology score	phospholipidosis EC50 [µM]
A549-ACE2 [5], 24 h	–	–	–	–	1.9
A549-ACE2 [5], 48 h	–	–	–	–	3
A549-ACE2 [5], 72 h	–	–	–	–	3.1
Caco-2 [16], 1 nM	–	–	104	–	–
Caco-2 [16], 10 nM	–	–	115	–	–
Caco-2 [16], 100 nM	–	–	106	–	–
Caco-2 [16], 1000 nM	–	–	105	–	–
Caco-2 [16], 10000 nM	–	–	53.6	–	–
Calu-3 [14], 1 nM	–	–	102	–	–
Calu-3 [14], 10 nM	–	–	94	–	–
Calu-3 [14], 100 nM	–	–	96.6	–	–
Calu-3 [14], 1000 nM	–	–	100	–	–
Calu-3 [14], 10000 nM	–	–	5.1	–	–
HepG2 [15], 1 nM	–	–	110	–	–
HepG2 [15], 10 nM	–	–	95.4	–	–
HepG2 [15], 100 nM	–	–	103	–	–
HepG2 [15], 1000 nM	–	–	105	–	–
HepG2 [15], 10000 nM	–	–	36.5	–	–
Vero E6 [18], 1 nM	–	–	103	–	–
Vero E6 [18], 10 nM	–	–	105	–	–
Vero E6 [18], 100 nM	–	–	103	–	–
Vero E6 [18], 1000 nM	–	–	99.9	–	–
Vero E6 [18], 10000 nM	–	–	91.1	–	–
[4], 0.3 µM	–	–	–	0.02	–
[4], 3 µM	–	–	–	0.87	–
[4], 10 µM	–	–	–	0.84	–
[4], 30 µM	–	–	–	-0.2	–
[6], 0.3 µM	–	98	–	–	–
[6], 3 µM	–	123	–	–	–
[6], 10 µM	–	118	–	–	–
[6], 30 µM	–	25	–	–	–
[7], 0.3 µM	100	–	–	–	–
[7], 3 µM	30	–	–	–	–
[7], 10 µM	8	–	–	–	–
[7], 30 µM	86	–	–	–	–

drug-induced phospholipidosis [%], A549-ACE2 [13]
Conditions	0.3 µM	0.833333 µM	3.33333 µM	6.66667 µM	10 µM
24 h	5.89	13.1	65.7	78.7	78.6
48 h	5.61	7.92	62.4	83.1	77.4
72 h	8.35	4.33	55.2	86.8	88.4

Cc1ccc(S(=O)(=O)/C=C/C#N)cc1 [BAY-11-7082]
Conditions	drug sensitivity score	relative viability EC50 [µM]
Caco-2 [2]	–	2.94
Caco-2 [10]	4.3	–
Calu-3 [8]	2	–
HepG2 [9]	7.2	–
HepG2 [19]	–	2.31
U2OS [3]	–	2.96
U2OS [11]	5.9	–
Vero E6 [12]	6	–
Vero E6 [20]	–	2.47

Conditions	SARS-CoV-2 infection rate, [7] [%]	cell count, [6] [%]	cell viability, Caco-2 [16] [%]	cell viability, Calu-3 [14] [%]	cell viability, HepG2 [15] [%]	cell viability, U2OS [17] [%]	cell viability, Vero E6 [18] [%]	morphology score, [4]
1 nM	–	–	92.8	104	94.2	97.2	95.5	–
10 nM	–	–	90.5	101	96.9	98.7	94.4	–
0.1 µM	106	101	–	–	–	–	–	0
100 nM	–	–	95.4	110	101	98.5	99.7	–
0.3 µM	99	98	–	–	–	–	–	-0.16
1 µM	108	95	–	–	–	–	–	-0.29
1000 nM	–	–	97.7	107	89.7	97.2	92.6	–
3 µM	107	84	–	–	–	–	–	-0.27
10000 nM	–	–	27	52.2	0	0.1	12.9	–

drug-induced phospholipidosis [%], A549-ACE2 [13]
Conditions	0.3 µM	0.833333 µM	3.33333 µM	6.66667 µM	10 µM
24 h	1.81	0.62	1.15	1.47	1.45
48 h	2.31	0.11	-1.24	0.67	2.43
72 h	3.69	-0.813	-2.01	-1.91	-1.18
